The target of this test is T1, Human TREM2 (Homo sapiens, UniProt Q9NZC2).
T1 construct: expressed in transfected cells
The test can be described thus: Human TREM2 activity by cellular phosphorylation of Syk (AlphaLISA SureFire Ultra p-SYK) in HEK293/DAP12+TREM2 stable cell line. Type of test: cell-based. The following applies: HEK293/DAP12+TREM2 cells. The source says: Human TREM2, in vitro Measurement of Triggering Receptor Expressed on Myeloid Cells 2 activity using cellular phosphorylation of Spleen Tyrosine Kinase (“Syk”) Assay
HEK-293 cells were co-transfected with separate plasmids encoding TREM2 and DAP12 to generate a stable cell line. After antibiotic selection, functional clone pool analysis and two successive limiting dilutions, the final clone
“HEK293/DAP12+TREM2” underwent a qPCR analysis and a pharmacological validation.
TREM2 signaling through DAP12 was monitored in the HEK293/DAP12+TREM2 stable cell line by measuring the phosphorylation levels of the Syk kinase using the commercially available AlphaLISA SureFire Ultra p-SYK (Tyr525/526) Assay Kit (PerkinElmer #ALSU-PSYK), based on the Perkin Elmer AlphaScreen/AlphaLISA technology.
Compounds are transferred to the test plate and tested in full dose response, 8 concentrations in quadruplicate data points. Compound serial dilutions were performed at Cybi-Felix instrument in 100% DMSO and the dose response curves were assembled in automated fashion in 384MPT at Hamilton STARIet instrument. All the stock solutions were prepared at 20 mM in 100% DMSO. For compounds testing, the starting concentration was 100 μM, dilution steps 1:6. A different concentration's range was adapted for compound's activity based on the preliminary results. Finally, a 384MPT reformatted for all compounds at 8 concentrations, quadruplicates, was used as “mother to child” process with a CyBi®-Well dispenser in which 1 μL of each compound was moved into a destination plate pre-filled with 65.6 μL of EMEM cell culture medium (BIOWHITTAKER_cat.BE12-125F), thus obtaining 3× concentrated compounds working solution. In columns 1-2 and 23-24 the control wells were added. In particular, dose response curves of a reference control agonist were included in column 1 and 24 as reference control agonist (Reference control agonists used include Human TREM2 polyclonal Antibody AF1828: R&D Systems; Human TREM2 monoclonal Antibody MAB1828: R&D Systems). The dose response curves were tested starting at 30 μM, dilution step 1:6. Both “source” compound plate and “destination” compound plate were barcoded and a relationship between the two plates was thus generated.
HEK293/DAP12+TREM2 cells were cultured in EMEM medium supplemented with IX Penicillin/Streptomycin (BIOWHITTAKER_cat.DE17-602E), ULTRAGLUTAMINE I 200 mM, 10% Fetal Bovine Serum plus antibiotics referred to as “HEK293 Culture Medium”. The day before the experiment, cells were detached by gentle wash with DPBS, followed by 5 min incubation at 37° C. with Trypsin solution. Cells were then diluted in HEK293 Culture Medium without antibiotics, counted and seeded into 384-well poly-D-Lysine coated microplates black/clear bottom (GREINER 781946) at a density of 10,000 cells/well in 25 μL/well by the use of a MATRIX WellMate dispenser. Plates were placed into a humidified cell culture incubator at 37° C. with 5% CO2 until the experimental day. 20-24 hours after seeding mature medium was removed and replaced with 10 μL/well of EMEM cell medium supplemented with 0.1% Pluronic F-68 non-ionic surfactant (Thermofisher, 24040032), referred to as “Assay Buffer”, using the CyBi®-Well instrument. Then 5 μL/well of Assay Buffer containing 3× concentrated test compounds or the reference control agonist (in 0.5% final DMSO concentration) were added to the cells with the CyBi®-Well instrument. Cell plates were incubated for 30 min into a humidified cell culture incubator at 37° C. with 5% CO2,then the medium was removed by manually discard. 20 μL/well of lysis buffer were dispensed using the CyBi®-Well instrument and plates were incubated for 10 min at room temperature on a plate shaker (350 rpm). Then, 10 μL/well of lysate were transferred to the Alpha plates. The CyBi®-Well instrument was used to dispense 5 μL/well of AlphaLISA Acceptor Bead Solution in IX Immunoassay buffer (Perkin Elmer ALOOOF). […]

This is an account of results in patent US12459953B2, “TREM2 modulators” (Muna Therapeutics ApS, priority 2024, dated 2025).

Each structure is given as a SMILES string.

T1 sequence (Q9NZC2 19-230): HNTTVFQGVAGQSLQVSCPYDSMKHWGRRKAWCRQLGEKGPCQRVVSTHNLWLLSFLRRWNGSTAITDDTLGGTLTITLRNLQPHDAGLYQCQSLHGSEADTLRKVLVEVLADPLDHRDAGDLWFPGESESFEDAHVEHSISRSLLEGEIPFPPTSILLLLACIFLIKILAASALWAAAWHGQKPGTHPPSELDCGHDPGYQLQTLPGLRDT
T1 sequence (O43914 22-113 partner): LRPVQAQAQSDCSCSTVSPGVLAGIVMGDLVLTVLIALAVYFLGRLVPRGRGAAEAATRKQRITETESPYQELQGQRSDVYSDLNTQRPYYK

The molecule `Cn1cc([C@H]2CN(c3cc4c(=O)n(C)c(C(F)(F)F)nc4c(-c4ccc(C#N)cc4F)n3)CCO2)cn1` [Example 15, (S)-3-fluoro-4-(3-methyl-6-(2-(1-methyl-1H-pyrazol-4-yl)morpholino)-4-oxo-2-(trifluoromethyl)-3,4-dihydropyrido[3,4-d]pyrimidin-8-yl)benzonitrile] showed an Emax (maximal response relative to the maximal response of the reference agonist (8-(4-chloro-2-fluorophenyl)-2,3-dimethyl-6-[(2S)-2-(1-methyl-1H-pyrazol-4-yl)morpholin-4-yl]-3H,4H-[1,3]diazino[5,4-d]pyrimidin-4-one)) of 75 to 110%. For the setting “phospho-Syk AlphaScreen signal, 30 min incubation, concentration giving 50% of maximal response”, this molecule registered an EC50 of 1 to 10 nM.
